Data taken from the NIST ThermoML archive (doi:10.1016/j.jct.2018.07.004).
Where “and” joins values, the source holds several entries; their conditions need not be identical. Equal values may be shown once.

Conditions: Calculated from knudsen effusion weight loss

c1ccc(-c2cc(-c3ccccc3)cc(-c3ccccc3)c2)cc1 [1,3,5-triphenylbenzene]
Crystal
Conditions | vapor or sublimation pressure
408.04 K | 0.000144 kPa
408.05 K | 0.0001488 kPa
408.16 K | 0.0001536 kPa
413.04 K | 0.0002384 kPa
413.05 K | 0.000247 kPa
413.16 K | 0.0002528 kPa
418.03 K | 0.0003878 kPa
418.05 K | 0.0004034 kPa
418.15 K | 0.0004157 kPa
423.03 K | 0.0006219 kPa and 0.0006345 kPa
423.04 K | 0.0006477 kPa
423.16 K | 0.0006722 kPa
428.03 K | 0.0009832 kPa
428.04 K | 0.001026 kPa
428.16 K | 0.001081 kPa

CCn1cc[n+](C)c1.O=S(=O)([N-]S(=O)(=O)C(F)(F)F)C(F)(F)F
Liquid
Conditions | vapor or sublimation pressure
433.05 K | 2.8e-06 kPa
433.1 K | 3e-06 kPa
438.04 K | 4.2e-06 kPa
438.1 K | 4.3e-06 kPa
438.12 K | 4.5e-06 kPa
443.04 K | 5.9e-06 kPa
443.09 K | 6.3e-06 kPa
443.12 K | 6.3e-06 kPa
448.03 K | 8.4e-06 kPa
448.09 K | 8.8e-06 kPa
448.12 K | 8.9e-06 kPa
453.03 K | 1.18e-05 kPa
453.09 K | 1.23e-05 kPa
453.11 K | 1.25e-05 kPa and 1.21e-05 kPa
453.12 K | 1.25e-05 kPa
458.01 K | 1.71e-05 kPa
458.02 K | 1.66e-05 kPa
458.09 K | 1.72e-05 kPa
458.11 K | 1.76e-05 kPa
458.13 K | 1.72e-05 kPa
463.05 K | 2.29e-05 kPa
463.08 K | 2.39e-05 kPa
463.1 K | 2.45e-05 kPa and 2.42e-05 kPa
463.12 K | 2.38e-05 kPa
463.13 K | 2.39e-05 kPa
468.04 K | 3.16e-05 kPa
468.08 K | 3.27e-05 kPa
468.1 K | 3.41e-05 kPa
468.11 K | 3.33e-05 kPa
468.12 K | 3.29e-05 kPa
468.13 K | 3.32e-05 kPa
473.04 K | 4.32e-05 kPa
473.07 K | 4.5e-05 kPa
473.1 K | 4.61e-05 kPa
473.12 K | 4.51e-05 kPa
473.13 K | 4.53e-05 kPa
473.14 K | 4.69e-05 kPa
478.04 K | 5.84e-05 kPa
478.07 K | 6.13e-05 kPa
478.09 K | 6.25e-05 kPa
478.12 K | 6.08e-05 kPa and 6.16e-05 kPa
478.13 K | 6.12e-05 kPa
483.04 K | 7.83e-05 kPa
483.06 K | 8.23e-05 kPa
483.08 K | 8.4e-05 kPa
483.11 K | 8.32e-05 kPa and 8.24e-05 kPa
483.12 K | 8.26e-05 kPa
488.05 K | 0.0001107 kPa
488.06 K | 0.0001105 kPa
488.08 K | 0.000112 kPa
488.11 K | 0.0001112 kPa and 0.0001115 kPa
493.05 K | 0.0001465 kPa
493.07 K | 0.0001477 kPa
493.1 K | 0.0001477 kPa
493.11 K | 0.0001477 kPa
498.1 K | 0.0001931 kPa
498.11 K | 0.0001943 kPa
503.1 K | 0.0002516 kPa and 0.0002533 kPa
